Measured values published in patent US10377747B2, “2-arylamino pyridine, pyrimidine or triazine derivatives, preparation method and use thereof” (Wuxi Shuangliang Biotechnology Co., Ltd., priority 2015, dated 2019).
Like-named read-outs stand apart in the source and are kept apart here.

Key:
[1] = test system: H1975 (non-small-cell lung cancer cells. EGFR L858K/T790M); experiment: Tumor cell proliferation and growth inhibition analysis (Cell Titer-Glo, 72 h), H1975; type: cell-based; conditions: Homo sapiens
Text: (§1) […] cell proliferation assay is described as follows.
(§2) Tumor cell proliferation and growth inhibition analysis: H1975 (non-small-cell lung cancer cells. EGFR L858K/T790M) and A431 (human epidermal cancer cells, EGFR wild type) cells were commercially available from the ATCC cell bank. […] The growth medium for A431 cells was DMEM (GIBCO, 11995-065), 10% fetal bovine serum. The influence exerted by the compounds on the proliferation activity of tumor cells was detected by Cell Titer-Glo assay. Tumor cells were exposed to the treatment conditions for 72 h, and the cell density used in each experiment for each cell line was adjusted according to the 72 h cell growth curve. 10 concentration gradients and three-fold dilutions (0.5 nM-10 μM) were set for compounds to be tested, and 3 parallel controls were used for each concentration value.
(§3) Trypsin was used for digesting cells in the logrithmic growth phase to prepare cell suspension, which was counted by a Roche counter and appropriately diluted with complete medium to a final cell concentration of 1˜2×10^3 cell/mL. 384-well plates were seeded with cells, and 22.6 μL were seeded for each well. 3 parallels were set. The plates were incubated in an incubator with 5% CO2 at 37° C. overnight. The compounds were dissolved in DMSO to prepare […] mother liquor. […] 2 μL of compound solution was added into 18 μL of culture medium, and fully mixed. Then 2 μL of mixed solution of compound and culture medium was added into 18 μL of culture medium, and fully mixed. 2.4 μL of mixtures were added into a 384-well plates. […] After cultivation for 72 h, 24 μL of Cell Titer-Glo reagent was added. The contents were mixed on an orbital shaker for 2 min to induce cell lysis. The 384-well plates were incubated at room temperature for 10 min to stabilize the […] signal value. Data was read by Infinite® M1000 PRO (TECAN), and calculated with GraphPad Prism version 5.0. GI50 value was obtained by adjustment using a non-linear regression model of dose response curves.

[2] = test system: A431 (human epidermal cancer cells, EGFR wild type); experiment: Tumor cell proliferation and growth inhibition analysis (Cell Titer-Glo, 72 h), A431; type: cell-based; conditions: A-431, 72 h exposure
Text: as §1, §2, §3

[3] = NCI-H1975, H1975 cells, 72 h exposure, Cell Titer-Glo, read-out: H1975 GI50

Compound	GI50 [1, 3] [nM]	GI50 [2] [nM]	GI50 ([1]; NCI-H1975, 72 h, read-out: H1975 GI50 (nM)) [nM]
C=CC(=O)Nc1cc(Nc2nccc(-c3cn(C)c4ccccc34)n2)c(OC)cc1N(C)CCN(C)C [AZD9291, reference compound]			2.8
C=CC(=O)Nc1cc(Nc2nccc(-c3noc4ccccc34)n2)c(OC)cc1N1CCN(C)CC1 [Example 2, N-(5-((4-(benzo[d]isoxazol-3-yl)pyrimidin-2-yl)amino)-4-methoxy-2-(4-methylpiperazin-1-yl)phenyl)acrylamide]	168	728	
C=CC(=O)Nc1cc(Nc2nccc(-c3noc4ccccc34)n2)c(OC)cc1N1CCC[C@H]1CN(C)C [Example 4, (S)—N-(5-((4-(benzo[d]isoxazol-3-yl)pyrimidin-2-yl)amino)-2-(2-((dimethno)methyl)pyrrolidin-1-yl)-4-methoxyphenyl)acrylamide]	844	~63400	
C=CC(=O)Nc1cc(Nc2nccc(-c3noc4ccccc34)n2)c(OC(F)F)cc1N1CCC[C@H]1CN(C)C [Example 10]	285	> 1000	
C=CC(=O)Nc1cc(Nc2nccc(-c3cn(C)c4cccnc34)n2)c(OC)cc1N1CCN(C)CC1 [Example 13, N-(4-methoxy-5-((4-(1-methyl-H-pyrrolo[3,2-b]pyridin-3-yl)pyrimidin-2-yl)amino)-2-(4-methylpiperazin-1-yl)phenyl)acrylamide]	175	1560	
C=CC(=O)Nc1cc(Nc2nccc(-c3cn(C)c4cccnc34)n2)c(OC)cc1N1CC(N(C)C)C1 [Example 14, N-(2-(3-(dimethylamino)azetidin-1-yl)-4-methoxy-5-((4-(1-methyl-1H-pyrrolo[3,2-b]pyridin-3-yl)pyrimidin-2-yl)amino)phenyl)acrylamide]	1460	~3520	
C=CC(=O)Nc1cc(Nc2nccc(-c3cn(C)c4cccnc34)n2)c(OC)cc1N1CCC[C@H]1CN(C)C [Example 16]	2880	2100	
C=CC(=O)Nc1cc(Nc2nccc(-c3cn(C)c4cccnc34)n2)c(OC(F)F)cc1N1CCN(C)CC1 [Example 19, N-(4-(difluoromethoxy)-5-((4-(1-methyl-1H-pyrrolo[3,2-b]pyridin-3-yl)pyrimidin-2-yl)amino)-2-(4-methylpiperazin-1-yl)phenyl)acrylamide]	166	1440	
C=CC(=O)Nc1cc(Nc2nccc(-c3cn(C)c4cccnc34)n2)c(OC(F)F)cc1N1CC(N(C)C)C1 [Example 20, N-(4-(difluoromethoxy)-2-(3-(dimethylamino)azetidin-1-yl)-5-((4-(1-methyl-1H-pyrrolo[3,2-b]pyridin-3-yl)pyrimidin-2-yl)amino)phenyl)acrylamide]	> 1000	> 1000	
C=CC(=O)Nc1cc(Nc2nccc(-c3cn(C)c4cccnc34)n2)c(OC(F)F)cc1N1CCC[C@H]1CN(C)C [Example 22, (S)—N-(4-(difluoromethoxy)-2-(2-((dimethylamino)methyl)pyrrolidin-1-yl)-5-((4-(1-methyl-1H-pyrrolo[3,2-b]pyridin-3-yl)pyrimidin-2-yl)amino)phenyl)acrylamide]	184	724	
C=CC(=O)Nc1cc(Nc2nccc(-c3nn(C)c4ccsc34)n2)c(OC(F)F)cc1N1CCN(C)CC1 [Example 26, N-(4-(difluoromethoxy)-5-((4-(1-methyl-1H-thieno[3,2-c]pyrazol-3-yl)pyrimidin-2-yl)amino)-2-(4-methylpiperazin-1-yl)phenyl)acrylamide]	296	1130	

The next lines start with results.

GI50 [1, 3] [nM]	GI50 [2] [nM]	Compound	GI50 ([1]; NCI-H1975, 72 h, read-out: H1975 GI50 (nM)) [nM]
7.3	~110	C=CC(=O)Nc1cc(Nc2nccc(-c3noc4ccccc34)n2)c(OC)cc1N(C)CCN(C)C [Example 1]	
82.4	1240	C=CC(=O)Nc1cc(Nc2nccc(-c3noc4ccccc34)n2)c(OC)cc1N1CCC(N(C)C)CC1 [Example 3, N-(5-((4-(benzo[d]isoxazol-3-yl)pyrimidin-2-yl)amino)-2-(4-(dimethylamino)piperidin-1-yl)-4-methoxyphenyl)acrylamide]	
31.2	1220	C=CC(=O)Nc1cc(Nc2nccc(-c3noc4ccccc34)n2)c(OC)cc1N1CC2(CCCN2C)C1 [Example 5, N-(5-((4-(benzo[d]isoxazol-3-yl)pyrimidin-2-yl)amino)-4-methoxy-2-(5-methyl-2,5-diazaspiro[3.4]oct-2-yl)phenyl)acrylamide]	
4	89.1	C=CC(=O)Nc1cc(Nc2nccc(-c3noc4ccccc34)n2)c(OC(F)F)cc1N(C)CCN(C)C [Example 6, N-(5-((4-(benzo[d]isoxazol-3-yl)pyrimidin-2-yl)amino)-4-(difluoromethoxy)-2-((2-(dimethylamino)ethyl)(methyl)amino)phenyl)acrylamide]	
49	~1720	C=CC(=O)Nc1cc(Nc2nccc(-c3noc4ccccc34)n2)c(OC(F)F)cc1N1CCN(C)CC1 [Example 7, N-(5-((4-(benzo[d]isoxazol-3-yl)pyrimidin-2-yl)amino)-4-(difluoromethoxy)-2-(4-methylpiperazin-1-yl)phenyl)acrylamide]	
26.1	299	C=CC(=O)Nc1cc(Nc2nccc(-c3noc4ccccc34)n2)c(OC(F)F)cc1N1CC(N(C)C)C1 [Example 8, N-(5-((4-(benzo[d]isoxazol-3-yl)pyrimidin-2-yl)amino)-4-(difluoromethoxy)-2-(3-(dimethylamino)azetidin-1-yl)phenyl)acylamide]	
24.2	> 1000	C=CC(=O)Nc1cc(Nc2nccc(-c3noc4ccccc34)n2)c(OC(F)F)cc1N1CCC(N(C)C)CC1 [Example 9, N-(5-((4-(benzo[d]isoxazol-3-yl)pyrimidin-2-yl)amino)-4-(difluoromethoxy)-2-(4-(dimethylamino)piperidin-1-yl)phenyl)acrylamide]	
36	690	C=CC(=O)Nc1cc(Nc2nccc(-c3noc4ccccc34)n2)c(OC(F)F)cc1N1CC2(CCCN2C)C1 [Example 11, N-(5-((4-(benzo[d]isoxazol-3-yl)pyrimidin-2-yl)amino)-4-(difluoromethoxy)-2-(5-methyl-2,5-diazaspiro[3.4]oct-2-yl)phenyl)acrylamide]	
6.8	10200	C=CC(=O)Nc1cc(Nc2nccc(-c3cn(C)c4cccnc34)n2)c(OC)cc1N(C)CCN(C)C [Example 12, N-(2-((2-(dimethylamino)ethyl)(methyl)amino)-4-methoxy-5-((4-(1-methyl-1H-pyrrolo[3,2-b]pyridin-3-yl)pyrimidin-2-yl)amino)phenyl)acrylamide]	
77.5	5370	C=CC(=O)Nc1cc(Nc2nccc(-c3cn(C)c4cccnc34)n2)c(OC)cc1N1CCC(N(C)C)CC1 [Example 15, N-(2-(4-(dimethylamino)piperidin-1-yl)-4-methoxy-5-((4-(1-methyl-1H-pyrrolo[3,2-b]pyridin-3-yl)pyrimidin-2-yl)amino)phenyl)acrylamide]	
39.8	1300	C=CC(=O)Nc1cc(Nc2nccc(-c3cn(C)c4cccnc34)n2)c(OC)cc1N1CC2(CCCN2C)C1 [Example 17, N-(4-methoxy-5-((4-(1-methyl-1H-pyrrolo[3,2-b]pyridin-3-yl)pyrimidin-2-yl)amino)-2-(5-methyl-2,5-diazaspiro[3.4]oct-2-yl)phenyl)acrylamide]	
6.7	296	C=CC(=O)Nc1cc(Nc2nccc(-c3cn(C)c4cccnc34)n2)c(OC(F)F)cc1N(C)CCN(C)C [Example 18]	
35.9	319	C=CC(=O)Nc1cc(Nc2nccc(-c3cn(C)c4cccnc34)n2)c(OC(F)F)cc1N1CCC(N(C)C)CC1 [Example 21, N-(4-(difluoromethoxy)-2-(4-(dimethylamino)piperidin-1-yl)-5-((4-(1-methyl-1H-pyrrolo[3,2-b]pyridin-3-yl)pyrimidin-2-yl)amino)phenyl)acrylamide]	
110	2440	C=CC(=O)Nc1cc(Nc2nccc(-c3cn(C)c4cccnc34)n2)c(OC(F)F)cc1N1CC2(CCCN2C)C1 [Example 23, N-(4-(difluoromethoxy)-5-((4-(1-methyl-1H-pyrrolo[3,2-b]pyridin-3-yl)pyrimidin-2-yl)amino)-2-(5-methyl-2,5diazaspiro[3.4]oct-2-yl)phenyl)acryl amide]	
10.7	209	C=CC(=O)Nc1cc(Nc2nccc(-c3nn(C)c4ccsc34)n2)c(OC)cc1N(C)CCN(C)C [Example 24, N-(2-((2-(dimethylamino)ethyl)(methyl)amino)-4-methoxy-5-((4-(1-methyl-1H-thieno[3,2-c]pyrazol-3-yl)pyrimidin-2-yl)amino)phenyl)acrylamide]	
6.5	85.8	C=CC(=O)Nc1cc(Nc2nccc(-c3nn(C)c4ccsc34)n2)c(OC(F)F)cc1N(C)CCN(C)C [Example 25]	
